Data as given in the METLIN SMRT retention time set (Domingo-Almenara et al. 2019).

Assay: gradient 5% acetonitrile 3 min, to 50% in 2 min, to 85% in 15 min, held 3 min, 100 µL/min
Conditions: column: Zorbax Extend-C18 2.1 x 50 mm; eluents: water / acetonitrile, 0.1% formic acid
Method in brief: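 Values are retention times taken from adduct peaks that software picked and an analyst inspected. The pure standards were run as mixtures of ~100 molecules on HPLC linked to a quadrupole time-of-flight mass spectrometer, in positive and negative ionization mode. A Zorbax Extend-C18 column (2.1 × 50 mm, 1.8 μm) was used at 100 μL/min with water and acetonitrile, each including 0.1% formic acid.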

SMILES | RP-LC retention time [s]
Cc1nn(C(C)C(=O)N2CCC(N3CCCCC3)CC2)c(=O)c2nn(-c3ccccc3)c(C)c12 (centres undefined) | 622
O=C(c1cc(S(=O)(=O)N2CCCC(C(=O)N3CCCC3)C2)c[nH]1)N1CCCCCC1 (centres undefined) | 733
COc1ccc(S(=O)(=O)N2CC3CN(C(=O)c4cc(C)oc4C)CC(C2)O3)cc1 | 785
CCCCNC(=O)CCC(=O)N1CC2CCCN2c2ccccc21 (centres undefined) | 837
Cc1ccc(CN2CCN(CC(=O)N3CCN(Cc4ccccc4)CC3)C(=O)C2=O)cc1 | 640
CCn1c(=O)c2c(cc(C)n2C)n(CC(=O)Nc2ccccc2C)c1=O | 776
Cc1cc(C)c(NC(=O)C2CCCN(c3nc4ccccc4nc3C(F)(F)F)C2)c(C)c1 (centres undefined) | 701
CSc1nnc(NC(=O)c2ccccc2Br)s1 | 737
Cc1ccc(NC(=O)N2CCc3c(c(-c4nc(C5CC5)no4)nn3C)C2)cc1 | 867
COCc1nncn1C1CCN(C(=O)C2(c3ccccc3)CC2)CC1 | 650
O=C(Cc1cccn1-c1ccc(Cl)cc1)NCc1ccc(N2CCOCC2)cc1 | 886
CCCC(C)C(=O)N1CC2CN(S(=O)(=O)c3ccccc3)CC(C1)O2 (centres undefined) | 807
C=CCNC(=O)C1CCN(C(=O)Nc2ccc(NC(=O)Nc3ccc(C)cc3C)cc2)CC1 | 728
O=C(NCc1ccc2c(c1)OCO2)C1CCCN(c2ncnc3c2nc2n3CCCCC2)C1 (centres undefined) | 750
CC(=O)N1CCc2[nH]c3ccc(C(=O)NCc4ccc(N5CCN(C)CC5)cc4)cc3c2C1 | 573
CCCCn1cc(S(=O)(=O)NCc2ccccn2)c2cccnc21 | 671
Cc1ccccc1NC(=O)N1CC(F)(F)C[C@H]1CN1CCCC1 | 622
CCCN(CCC)[C@@H]1CCc2cccc(O)c2C1 | 691
CC(C)c1nnc(-c2cccnc2N2CCN(C(=O)c3ccc4[nH]ccc4c3)CC2)o1 | 749
CNC(=O)N1CCCC(c2cccc(C(=O)NC3CCCCCC3)c2)C1 (centres undefined) | 820

SMILES | RP-LC retention time [s]
O=C(NCc1ccc2c(c1)OCO2)c1nnc(-c2ccc(S(=O)(=O)N3CCOCC3)cc2)o1 | 804
COc1ccc(CCC(=O)N2CCC3(C2)C(=O)Nc2ccc(OC)cc23)cc1 (centres undefined) | 751
Cc1ccc(CNC(=O)C2CCCN(c3nc4c(s3)c(C)nn4-c3ccc(F)cc3)C2)o1 (centres undefined) | 1100
Cc1cc(N2CCN(C(=O)c3ccc(N(C)C)cc3)CC2)nc2nnc(C)n12 | 579
CCNc1cc(N2CCCC(CCC(=O)NCCOC)C2)ncn1 (centres undefined) | 580
CN(C)[C@@H]1CN(C(=O)c2n[nH]c3ccccc23)C[C@H]1CO | 552
Cc1nc(CCNC(=O)C2CCN(S(=O)(=O)c3ccc(Cl)cc3)CC2)cs1 | 755
CC(C)NC(=O)N1C[C@@H]2CCCN3CCC[C@@H]([C@H]23)[C@H]1CCCC(=O)NCC1CC1 | 578
O=C(NC1(c2nc(-c3cccnc3)no2)CCCCC1)c1ccc[nH]c1=O | 667
CCc1cc(C2CCCN2C(=O)Nc2ccccc2C)on1 (centres undefined) | 780
CCOCCCNC(=O)N1CCN(c2nc3ccccc3n3cccc23)CC1 | 618
CN1c2ccc(Cl)cc2C(=O)NC12CCN(C(=O)c1ccc3c(c1)OCO3)CC2 | 769
Cn1c(=O)n(C)c2cc(CNc3ccc4[nH]c(=O)[nH]c4c3)ccc21 | 561
CC1CCCN(c2nccn3c(=O)n(CC(=O)Nc4ccc(Br)cc4F)nc23)C1 (centres undefined) | 911
Cc1cccc(N(C)C(=O)Cn2c(=O)n(-c3cccc(C)c3)c(=O)c3c2cc(C)n3C)c1 | 752
O=C(Cc1ccccc1Cl)N1CCC2(C1)C(=O)Nc1ccccc12 (centres undefined) | 758
COC(=O)Cn1c(=O)c2c(nc3n2CCCN3c2ccccc2)n(C)c1=O | 761
O=C(NCc1ccco1)c1ccc(-n2nnc3cccnc32)cc1Cl | 793
CCn1cc(-c2nc(-c3ccc(C)cc3)no2)c(=O)c2cc(F)c(N3CCOCC3)cc21 | 961
CC(C)c1cc(C2CCCN2C(=O)NC2CCCC2)on1 (centres undefined) | 823

SMILES | RP-LC retention time [s]
COCCc1noc(-c2nc(-c3ccc(OC)cc3)no2)n1 | 976
Cc1ccc(S(=O)(=O)N2C[C@H]3CN(C(=O)Nc4cccc(C)c4)C[C@@H](C2)O3)cc1 | 852
CC1CCN(c2cc(-c3noc(C(=O)NCCN(C)C)n3)ccn2)CC1 | 566
Cc1ccc(CC#N)c(-c2c(CC#N)ccc(C)c2C)c1C | 1170
O=C(C1CCN(c2nnc(-c3ccccc3)o2)CC1)N1CCN(c2ccccc2)CC1 | 857
Cc1ccc2oc(N3CCN(C(=O)Cc4ccccc4)CC3)nc2n1 | 620
Cn1cc(-c2cc3n(n2)CCC(=O)N3CCCC(=O)NCCCN2CCCC2)c2ccccc21 | 621
CCNc1cc(N2CCCC(CCC(=O)NC3CCCC3)C2)ncn1 (centres undefined) | 646
CN(CCc1noc(COc2cccc(C(F)(F)F)c2)n1)C(=O)c1ccco1 | 919
CCN(C(=O)Cc1c(C(=O)O)c(C)cn1C)c1ccccc1 | 722
CCn1ccc2sc(C)c(C(=O)N3CCN(CC(C)C)CC3)c2c1=O | 574
Cn1c(N2CCCCS2(=O)=O)nc(C(=O)NCc2ccc(F)cc2)c(O)c1=O | 864
Cc1noc2nc(C)n(CC(=O)Nc3ccccc3F)c(=O)c12 | 752
CCC(=O)N1CCOc2ccc(NC(=O)C3CC3)cc2C1 | 674
O=C(C1CCC1)N1CCc2sc(S(=O)(=O)NCc3ccccc3)cc2C1 | 847
CS(=O)(=O)N1CCN(C(=O)Cc2csc(Nc3ncccn3)n2)CC1 | 601
O=S(=O)(c1ccccc1)N1[C@H]2CC[C@@H]1c1cncnc1C2 | 678
Cc1ccc(-c2cc(C(=O)N3CCN(c4ccccn4)CC3)ccn2)s1 | 639
Cc1cccc(-c2cc3n(n2)CCCN(C(=O)C2CCOC2)C3)c1 (centres undefined) | 735
CC(C)(C)CC(=O)N1CCC(Oc2nccnc2N2CCc3ccccc32)C1 (centres undefined) | 1060

Further lines, results first:

RP-LC retention time [s] | SMILES
1080 | COc1ccc(NC(=O)C2CCCN(c3nc4c(s3)c(C)nn4-c3ccc(OC)cc3)C2)cc1 (centres undefined)
569 | COc1ccc(-c2ncccc2CNC(=O)C2CC2)cc1
1140 | COc1ccc(N2CC(c3noc(-c4ccc(C(C)(C)C)cc4)n3)CC2=O)cc1OC (centres undefined)
591 | CCOc1cc(Nc2ccc(NC(=O)c3ccco3)cc2)nc(C)n1
1120 | Cc1ccccc1-c1nc(-c2nnn(Cc3ccccc3)c2C)no1
640 | COc1ccc(NC(=O)N2CCC(c3cc(N)on3)CC2)cc1
1180 | COc1cccc(CNc2ccc(-c3nc(-c4ccc(F)cc4)no3)cn2)c1
631 | O=C1c2cccc3cccc(c23)C(=O)N1c1cccnc1
765 | CCN1C(=O)c2cccnc2Sc2cc(CNC(=O)c3ccc(F)cc3)ccc21
871 | CCc1ccc(CNC(=O)C2CCCN(c3ncnc4c3oc3ccccc34)C2)cc1 (centres undefined)
683 | CCCc1cc(NC)n2ncc(-c3ccccc3)c2n1
722 | COc1ccc(NC(=O)c2ccc3nc(-c4ccccc4)cn3c2)c(OC)c1
573 | COc1ccc(NC(=O)Cn2ccnc2-c2ccnc(N3CCCC3)c2)cc1OC
1240 | COc1ccc(-c2noc(-c3ccc(N4CCN(c5ccc(OC)cc5)CC4)nc3)n2)cc1
912 | Cc1ccc(C)c(C(=O)N2CCC(COc3ccc(C(=O)NC(C)C)cc3)CC2)c1
599 | CCN1CCN(c2cc(C)c3cc(NC(=O)c4cc(-c5ccco5)nc5ccccc45)ccc3n2)CC1
1210 | COc1ccc(-c2ncc3c(=O)n(Cc4ccccc4Cl)c(=O)n(C)c3n2)cc1
588 | CN1CCN(c2ccc(-c3ccc(NC(=O)Nc4cccc(Cl)c4)cc3)nn2)CC1
1090 | CC(C)Cc1nc(-c2ccccc2)oc1CC(=O)NCc1cccc(Cl)c1
599 | COc1ccc(C(C)NC(=O)c2cc(NC(C)=O)cc3nc(C)ccc23)cc1OC (centres undefined)
964 | CCc1noc(NC(C)=O)c1-c1ccc(C)c(S(=O)(=O)N2CCN(c3ccccc3)CC2)c1
591 | CCn1c(-c2cccc(C(N)=O)c2)nc2cccnc21
833 | Cc1noc(-c2ccnc(-n3cnc(C(=O)NCc4ccccc4F)c3)c2)n1
1070 | COc1cccc(Cn2c(=O)c3sccc3n(Cc3nc(-c4ccc(F)cc4)no3)c2=O)c1
804 | CCn1cc(S(=O)(=O)N2CCCCC2CCn2cc(-c3ccccc3)nn2)cn1 (centres undefined)
884 | Cc1ccc(CCNC(=O)Cc2csc3nc(-c4ccc(C)c(C)c4)cn23)cc1
1040 | Cc1ccc(-c2nc3cnccn3c2Nc2cc(C)cc(C)c2)cc1
1280 | CCOc1cccc(-c2noc(Cn3ncn4nc(-c5cc(C)ccc5C)cc4c3=O)n2)c1
713 | O=C(NCC1CCN(C(=O)Nc2ccc(F)cc2)CC1)c1ccccc1Cl
